From patent publication US12514843B2, “Biofilm disruption” (QBIOTICS PTY LTD, priority 2019, dated 2026)
Converted amounts (≈) assume the structure as drawn.

Experiments:
[1] = system: methicillin resistant Staphylococcus aureus (MRSA) 1004A; assay: Minimum inhibitory concentration (MIC) assay, planktonic culture, broth dilution; type: cell-based; parameters: key: C = confluent growth, i.e. no MIC could be determined at any concentration tested; conditions: S. aureus, planktonic culture in Mueller-Hinton broth; mean of three replicate tests
Method: (§1) The effects of five epoxytiglienones (Compounds 1, 2, 3, 4 and 6) and two comparator comparator compounds (epoxytiglienones having longer carbon chains at the C12 position) on six human pathogenic bacteria (two Gram-positive and four Gram-negative species) were measured in conventional planktonic culture systems. A minimum inhibitory concentrations (MIC) assay (the standard assay employed to define and quantify antibiotic activity) was performed to determine antibacterial activity for each epoxytiglienone against each bacterial strain.
(§2) The Gram-positive bacteria used in this study were methicillin resistant Staphylococcus aureus (MRSA) 1004A and Streptococcus pyogenes. The Gram-negative bacteria used in this study were Pseudomonas aeruginosa PAO1, Escherichia coli IR57 (V7), Klebsiella pneumoniae, and Acinetobacter baumannii 7789 (V19). MIC assays were performed on planktonic cultures of each bacteria grown in Mueller-Hinton broth using the standard broth dilution method described by Jorgensen et al. (1999) using epoxytiglienones dissolved in ethanol.

[2] = system: Klebsiella pneumoniae; assay: as above; type: cell-based; parameters: key: C = confluent growth, i.e. no MIC could be determined at any concentration tested; conditions: K. pneumoniae, planktonic culture in Mueller-Hinton broth; mean of three replicate tests
Method: as §1, §2

[3] = system: Escherichia coli IR57 (V7); assay: as above; type: cell-based; parameters: key: C = confluent growth, i.e. no MIC could be determined at any concentration tested; conditions: E. coli, planktonic culture in Mueller-Hinton broth; mean of three replicate tests
Method: as §1, §2

[4] = system: Streptococcus pyogenes; assay: as above; type: cell-based; parameters: key: C = confluent growth, i.e. no MIC could be determined at any concentration tested; conditions: S. pyogenes, planktonic culture in Mueller-Hinton broth; mean of three replicate tests
Method: as §1, §2

[5] = system: Acinetobacter baumannii 7789 (V19); assay: as above; type: cell-based; parameters: key: C = confluent growth, i.e. no MIC could be determined at any concentration tested; conditions: A. baumannii, planktonic culture in Mueller-Hinton broth; mean of three replicate tests
Method: as §1, §2

[6] = system: Pseudomonas aeruginosa PAO1; assay: as above; type: cell-based; parameters: key: C = confluent growth, i.e. no MIC could be determined at any concentration tested; conditions: P. aeruginosa, planktonic culture in Mueller-Hinton broth; mean of three replicate tests
Method: as §1, §2

[7] = system: isolated human neutrophils; assay: NETosis/necrosis assay, Hoescht/Sytox Green fluorescence; type: cell-based
Method: (§3) For these assays, neutrophils were isolated from fresh blood of a healthy human donor by lysis of a red blood cell pellet that had been obtained by Ficoll-Paque sedimentation. The neutrophils (˜4×10^6 cells/mL) were incubated with 10 μg/mL dihydroethidium (DHE) (Sigma-Aldrich) in complete culture medium at 37° C. for 15 min alongside an aliquot of unstained cells to be tested as unstained control.
NETosis/necrosis assays followed methods fully described by Brinkmann et al. 2010. Isolated neutrophils were plated into 96-well plates (RPMI1640, 10% FCS) and incubated with a 1:50,000 dilution of Hoescht (10 mg/mL) and Sytox® Green (5 mM). Compound 4 was added at six concentrations (0.005, 0.05, 0.5. 5, 50, 500 μM) and the cells incubated at 37° C., 5% CO2. Vehicle treated controls were included in all assays and there were three replicates of each assay. Hoescht/Sytox® Green fluorescence images were recorded for each well at 3 and 6 hours.

[8] = system: E. coli IR57 biofilm; assay: Disruption of established in vitro biofilm, CLSM with COMSTAT image analysis; type: cell-based, Escherichia coli; conditions: E. coli IR57 24 h biofilm, 256 μg/mL, further 24 h; vs untreated and ethanol blank controls
Method: The effects of administration of Compounds 1, 4 and 6 and comparator compound CC-1 on disruption of established in vitro biofilms of Escherichia coli (E. coli) was investigated using methods described in Powell et al. (2018).
(§4) Biofilms of E. coli IR57 were grown on 96-well glass-bottomed plates in Mueller-Hinton (MH) broth for 24 h, before 50% of the supernatant was replaced with fresh MH broth with or without the epoxytiglienone compound added to a final concentration of 256 μg/mL (vehicle is ethanol). An ethanol equivalent blank was used as a further control treatment. The plates were then incubated for a further 24 h at 37° C.
(§5) Confocal laser scanning microscopy (CLSM) was then used to image the biofilms, following staining with Live/Dead® Baclight stain with phosphate buffered saline (PBS) added to each well before imaging with z-stack CLSM. The resultant images were analysed by COMSTAT software to produce measurements of (i) biofilm biomass volume or bio-volume (μm^3/μm^2) and (ii) DEAD/LIVE bacterial ratio.

[9] = system: isolated human neutrophils; assay: LL-37 release from neutrophils, ELISA; type: cell-based; conditions: 3 hours after treatment, 62.5, 125, 250 and 500 μM
Method: as §3
To examine antimicrobial peptide release by neutrophils in response to treatment with Compound 4, isolated neutrophils were incubated with either vehicle or Compound 4 at the four concentrations (62.5, 125, 250 and 500 μM). At 3 h, cell culture supernatants were removed and tested for LL-37 content using a LL-37-directed ELISA kit (Hycult Biotech). ELISA readings were normalised to vehicle only controls to determine fold increases in LL-37 release.

[10] = system: A. baumannii 7789 biofilm; assay: Disruption of established in vitro biofilm, CLSM with COMSTAT image analysis; type: cell-based, Acinetobacter baumannii; conditions: 256 μg/mL
Method: as §4, §5
The effects of the epoxytiglienones (Compounds 1, 4, 6 and the comparator compound CC-1) on disruption of established in vitro biofilms were further investigated with two other species of Gram-negative bacteria (Pseudomonas aeruginosa PA01 and Acinetobacter baumannii 7789) using methods described in Example 2 above. Cell permeabilisation following Compound 1, 4 and 6 treatment was also determined using SYTOX™ Green Nucleic Acid Stain with untreated control and positive control of 70% isopropanol.

`CCCCCC(=O)OC1C(C)C2(O)C(C3OC3(CO)C(O)C3(O)C(=O)C(C)=CC32)C2C(C)(C)C12OC(=O)CCCCC` (stereo not drawn) [Compound 4, 12,13-dihexanoyl-6,7-epoxy-4,5,9,12,13,20-hexahydroxy-1-tiglien-3-one] was tested, and the Minimum inhibitory concentrations [1] was 512 µg/mL (≈ 864 µM), the Minimum inhibitory concentrations [2] was “C” and the Minimum inhibitory concentrations [3] was “C”. The Minimum inhibitory concentrations [4] was 256 µg/mL (≈ 432 µM), the Minimum inhibitory concentrations [5] was “C” and the Minimum inhibitory concentrations [6] was “C”. For the same compound, the “chromatin appearance in neutrophils (more diffuse)” value ([7]; 50 μM) was “NETosis has occurred”, the “chromatin appearance in neutrophils (condensed)” value ([7]; 500 μM) was “necrosis has occurred” and the “NETosis and necrosis of neutrophils” value ([7]; 3 hours after treatment, 50 μM and 500 μM) was “initially observed”. The “NETosis and necrosis of neutrophils” value ([7]; 6 hours, four lower concentrations 0.005 μM-5 μM) was “evident”, the “biofilm bio-volume (COMSTAT)” value [8] was “Decreases in bio-volume were evident” and the “distribution and density of bacteria in the biofilm (CLSM)” value [8] was “significant changes”. The “Release of LL-37 from neutrophils” value [9] was “increased in a concentration dependent manner”, the DEAD/LIVE bacterial ratio ([10]; vs untreated and ethanol blank controls) was “no significant differences” and the “biofilm bio-volume (COMSTAT)” value ([10]; vs untreated and ethanol blank controls (p<0.05)) was “significant reductions”.
